# Source: patent US20230032101A1, “FIVE-MEMBERED HETEROCYCLIC OXOCARBOXYLIC ACID COMPOUND AND MEDICAL USE THEREOF” (Shanghai Institute of Materia Medica, Chinese Academy of …, priority 2019, published 2023)
# Columns and labels:
# Format in all cases: cell-based
# [1] = system: type I interferon pathway (ISG) in human THP1-Blue-ISG cells; assay: Activation of type I interferon pathway (ISG) in human THP1-Blue-ISG cells (Quanti-Blue, OD650); conditions: 24 h, Compound OD650/Control OD650, ≥2 times considered valid; for fold induction at 10 µM / fold induction at 50 µM: Homo sapiens, THP1-Blue ISG, read-out: Fold Change
# Procedure: 20 μL of compound diluted with physiological saline was added to each well of a 96-well cell culture plate, the positive control compound was ADU-S100, and the solvent control group was added with 20 μL of physiological saline containing DMSO. THP1-Blue-ISG cells were counted, the cell concentration was adjusted to 5×10^5/mL, and 180 μL of cells were added to each well for incubation. Therefore, the final volume of each test well was 200 μL, the content of DMSO was 0.1%/0.5%, the test concentration of the compound was 10/50 μM, and the positive control compound was ADU-S100 at a final concentration of 10 μM, and incubated for 24 hours for detection.
# After 24 hours, 20 μL of the culture solution was took out from each well to a new 96-well plate, 180 μL of chromogenic solution Quanti-Blue was added, placed in a 37° C. incubator, and the OD650 value was measured after 0.5-2 hours. The experiment was repeated twice.
# The experimental results were used to evaluate the ability of compounds to induce the secretion of type I interferon pathway (ISG) by the Fold Change, which was calculated as follows:
# Fold Change=Compound OD650/Control OD650, wherein the results of ≥2 times were considered valid.
# [2] = system: type I interferon pathway (ISG) in human THP1-Blue-ISG cells; assay: as above; conditions: 24 h, Compound OD650/Control OD650, ≥2 times considered valid, read-out: Fold Change
# [3] = system: type I interferon pathway in murine Raw-lucia cells; assay: Activation of type I interferon pathway in murine Raw-lucia cells (QUANTI-Luc luminescence); conditions: Mus musculus, 24 h, Compound Luminescence/Control Luminescence, ≥2 times considered valid, read-out: Fold Change
# Procedure: Raw-lucia cells were counted, the cell concentration was adjusted to 5×10^5/mL, and 180 μL of cells were added to each well for incubation. 20 μL of compound diluted with physiological saline was added to each well of a 96-well cell culture plate after cells were adhered, the concentration of the compound was 50 μM/100 μM.
# After 24 hours, 20 μL of the culture medium was took out from each well to a new 96-well plate with bottom-transmitting, 50 μL of the luciferase detection reagent QUANTI-Luc™ was added, and the […] was measured immediately (in the dark). The experiment was repeated twice.
smiles,measurement,setting,value
"Nc1ncnc2c1ncn2[C@@H]1O[C@@H]2COP(=O)([S-])O[C@@H]3[C@H](O)[C@@H](COP([O-])(=S)O[C@H]2[C@H]1O)O[C@H]3n1cnc2c(N)ncnc21.[Na+].[Na+] (stereo partly drawn) [ADU-S100, reference compound]",Fold Change,[1]; 10 μM,12.45@10 μM
"O=C(O)CC(=O)c1cc(-c2c[nH]c3ccccc23)cs1 [Example I-1, 3-(4-(1H-indol-3-yl)thiophen-2-yl)-3-oxopropionic Acid]",fold induction at 10 µM,[1]; 10 μM,14.3
"O=C(O)CC(=O)c1cc(-c2c[nH]c3cc(F)ccc23)cs1 [Example I-2, 3-(4-(6-fluoro-1H-indol-3-yl)thiophen-2-yl)-3-oxopropionic acid]",fold induction at 10 µM,[1]; 10 μM,11
"O=C(O)CC(=O)c1cc(-c2c[nH]c3c(F)cccc23)cs1 [Example I-3, 3-(4-(7-fluoro-1H-indol-3-yl)thiophen-2-yl)-3-oxopropionic acid]",fold induction at 10 µM,[1]; 10 μM,9.82
"O=C(O)CC(=O)c1cc(-c2c[nH]c3ccc(F)cc23)cs1 [Example I-4, 3-(4-(5-fluoro-1H-indol-3-yl)thiophen-2-yl)-3-oxopropionic acid]",fold induction at 10 µM,[1]; 10 μM,9.95
"O=C(O)CCCC(=O)c1cc(-c2c[nH]c3ccccc23)cs1 [Example I-13, 5-(4-(1H-indol-3-yl)thiophen-2-yl)-5-oxopentanoic Acid]",fold induction at 30 µM,[2],12.6
"O=C(O)CCCC(=O)c1cc(-c2c[nH]c3c(F)cccc23)cs1 [Example I-14, 5-(4-(7-fluoro-1H-indol-3-yl)thiophen-2-yl)-5-oxopentanoic Acid]",fold induction at 50 µM,[1],1.96
"COC(=O)CC(=O)c1cc(-c2c[nH]c3ccccc23)cs1 [Example I-16, methyl 3-(4-(1H-indol-3-yl)thiophen-2-yl)-3-oxopropionate]",fold induction at 10 µM,[1]; 10 μM,14.3
"COC(=O)CC(=O)c1cc(-c2c[nH]c3cc(F)ccc23)cs1 [Example I-17, methyl 3-(4-(6-fluoro-1H-indol-3-yl)thiophen-2-yl)-3-oxopropionate]",fold induction at 10 µM,[1]; 10 μM,11
"COC(=O)CC(=O)c1cc(-c2c[nH]c3c(F)cccc23)cs1 [Example I-18, methyl 3-(4-(7-fluoro-1H-indol-3-yl)thiophen-2-yl)-3-oxopropanoate]",fold induction at 10 µM,[1]; 10 μM,9.8
"COC(=O)CC(=O)c1cc(-c2c[nH]c3ccc(F)cc23)cs1 [Example I-19, methyl 3-(4-(5-fluoro-1H-indol-3-yl)thiophen-2-yl)-3-oxopropionate]",fold induction at 10 µM,[1]; 10 μM,10
"COC(=O)CC(=O)c1cc(-c2coc3ccccc23)cs1 [Example I-26, methyl 3-(4-(benzofuran-3-yl)thiophen-2-yl)-3-oxopropanoate]",fold induction at 20 µM,[2]; 20 μM,14.6
"COC(=O)CC(=O)c1cc(-c2coc3ccccc23)co1 [Example I-31, methyl 3-(4-(benzofuran-3-yl)furan-2-yl)-3-oxopropanoate]",fold induction at 30 µM,[2],43.2
"COC(=O)CC(=O)c1cc(-c2ccc(OC)c(OC)c2)co1 [Example I-34, methyl 3-(4-(3,4-dimethoxyphenyl)furan-2-yl)-3-oxopropanoate]",fold induction at 30 µM,[2],23.7
"COC(=O)CC(=O)c1cc(-c2ccc3ccoc3c2)co1 [Example I-36, methyl 3-(4-(benzofuran-6-yl)furan-2-yl)-3-oxopropanoate]",fold induction at 30 µM,[2],29.7
"COC(=O)CC(=O)c1cc(-c2c[nH]c3cc(F)ccc23)co1 [Example I-37, methyl 3-(4-(6-fluoro-1H-indol-3-yl)furan-2-yl)-3-oxopropanoate]",fold induction at 10 µM,[1]; 10 μM,71.5
"COC(=O)CC(=O)c1cc(-c2c[nH]c3c(F)cccc23)co1 [Example I-38, methyl 3-(4-(7-fluoro-1H-indol-3-yl)furan-2-yl)-3-oxopropanoate]",fold induction at 10 µM,[1]; 10 μM,77.2
"COC(=O)CC(=O)c1cc(-c2c[nH]c3cccc(F)c23)co1 [Example I-39, methyl 3-(4-(4-fluoro-1H-indol-3-yl)furan-2-yl)-3-oxopropanoate]",fold induction at 10 µM,[1]; 10 μM,59.5
"COC(=O)CC(=O)c1cc(-c2c[nH]c3ccc(F)cc23)co1 [Example I-40, methyl 3-(4-(5-fluoro-1H-indol-3-yl)furan-2-yl)-3-oxopropanoate]",fold induction at 10 µM,[1]; 10 μM,53.7
"COC(=O)CC(=O)c1cc(-c2c[nH]c3ccc(OC)cc23)cs1 [Example I-42, methyl 3-(4-(5-methoxy-1H-indol-3-yl)thiophen-2-yl)-3-oxopropanoate]",fold induction at 10 µM,[1]; 10 μM,61.8
"COC(=O)CC(=O)c1cc(-c2c[nH]c3ccc(OC)cc23)co1 [Example I-43, methyl 3-(4-(5-methoxy-1H-indol-3-yl)furan-2-yl)-3-oxopropanoate]",fold induction at 10 µM,[1]; 10 μM,23.3
"O=C(O)CCC(=O)c1cc(-c2csc3ccccc23)cs1 [I′-4, 4-(4-(benzo[b]thiophen-3-yl)thiophen-2-yl)-4-oxobutyric Acid]",fold induction at 50 µM,[1],18.4
"O=C(O)CCC(=O)c1cc(-c2cccc3sccc23)cs1 [I′-10, 4-(4-(benzo[b]thiophen-4-yl)thiophen-2-yl)-4-oxobutyric Acid]",fold induction at 50 µM,[1],15.1
"O=C(O)CCC(=O)c1cc(-c2coc3ccccc23)cs1 [I′-14, 4-(4-(benzofuran-3-yl)thiophen-2-yl)-4-oxobutyric Acid]",fold induction at 100 µM,[3],18.1
same,fold induction at 25 µM,[2],20.7
"O=C(O)CCC(=O)c1cc(-c2coc3ccccc23)co1 [I′-17, 4-(4-(benzofuran-3-yl)furan-2-yl)-4-oxobutyric acid]",fold induction at 50 µM,[3],12.5
same,fold induction at 25 µM,[2],21.6
"O=C(O)CCC(=O)c1cc(-c2c[nH]c3ccccc23)co1 [I′-30, 4-(4-(1H-indol-3-yl)furan-2-yl)-4-oxobutyric Acid]",fold induction at 100 µM,[3],8.13
same,fold induction at 12.5 µM,[2]; 12.5 μM,22.7
"CC(CC(=O)c1cc(-c2coc3ccccc23)co1)C(=O)O (stereo not drawn) [I′-37, 4-(4-(benzofuran-3-yl)furan-2-yl)-2-methyl-4-oxobutyric Acid]",fold induction at 50 µM,[3],3.79
"O=C(O)CCC(=O)c1cc(-c2c[nH]c3cc(F)ccc23)co1 [I′-38, 4-(4-(6-fluoro-1H-indol-3-yl)furan-2-yl)-4-oxobutyric Acid]",fold induction at 50 µM,[3],7.1
same,fold induction at 10 µM,[1]; 10 μM,7.15
"O=C(O)CCC(=O)c1cc(-c2c[nH]c3cc(F)ccc23)cs1 [I′-46, 4-(4-(6-fluoro-1H-indol-3-yl)thiophen-2-yl)-4-oxobutyric Acid]",fold induction at 100 µM,[3],31.4
same,fold induction at 10 µM,[1]; 10 μM,11.3
"O=C(O)CCC(=O)c1cc(-c2c[nH]c3c(F)cccc23)cs1 [I′-49, 4-(4-(7-fluoro-1H-indol-3-yl)thiophen-2-yl)-4-oxobutyric Acid]",fold induction at 50 µM,[3],36.2
same,fold induction at 10 µM,[1]; 10 μM,10.3
"COC(=O)CCC(=O)c1cc(-c2c[nH]c3c(F)cccc23)cs1 [I′-50, Methyl 4-(4-(7-fluoro-1H-indol-3-yl)thiophen-2-yl)-4-oxobutyrate]",fold induction at 10 µM,[1]; 10 μM,68.1
"O=C(O)CCC(=O)c1cc(-c2c[nH]c3cccc(F)c23)cs1 [I′-51, 4-(4-(4-fluoro-1H-indol-3-yl)thiophen-2-yl)-4-oxobutyric Acid]",fold induction at 100 µM,[3],9.75
same,fold induction at 10 µM,[1]; 10 μM,5.27
"O=C(O)CCC(=O)c1cc(-c2coc3ccc(F)cc23)cs1 [I′-54, 4-(4-(5-fluorobenzofuran-3-yl)thiophen-2-yl)-4-oxobutyric Acid]",fold induction at 100 µM,[3],4.5
"O=C(O)CCC(=O)c1cc(-c2c[nH]c3c(F)cccc23)co1 [I′-58, 4-(4-(7-fluoro-1H-indol-3-yl)furan-2-yl)-4-oxobutyric Acid]",fold induction at 100 µM,[3],14.2
same,fold induction at 10 µM,[1]; 10 μM,4.14
